Results taken from patent publication US11021481B2, “Substituted isoindolin-1-ones and 2,3-dihydro-1h-pyrrolo[3,4-c]pyridin-1-ones as HPK1 antagonists” (Nimbus Saturn, Inc., priority 2019, dated 2021).
pIC50: −log10 of the molar value. Structures can show the parent of a compound that is named as a salt.

These molecules were tested against HPK1 (Homo sapiens (Human), UniProt Q92918) (assay: HPK1 biochemical enzyme assay (microfluidic mobility shift assay)). Conditions: 1.5 nM HPK1, ATP 1 mM final, 30 min preincubation, 60 min at RT, Caliper EZ Reader; read-out: HPK1 1000UMATP caliper IC50.
Sequence of HPK1 (Q92918 whole entry): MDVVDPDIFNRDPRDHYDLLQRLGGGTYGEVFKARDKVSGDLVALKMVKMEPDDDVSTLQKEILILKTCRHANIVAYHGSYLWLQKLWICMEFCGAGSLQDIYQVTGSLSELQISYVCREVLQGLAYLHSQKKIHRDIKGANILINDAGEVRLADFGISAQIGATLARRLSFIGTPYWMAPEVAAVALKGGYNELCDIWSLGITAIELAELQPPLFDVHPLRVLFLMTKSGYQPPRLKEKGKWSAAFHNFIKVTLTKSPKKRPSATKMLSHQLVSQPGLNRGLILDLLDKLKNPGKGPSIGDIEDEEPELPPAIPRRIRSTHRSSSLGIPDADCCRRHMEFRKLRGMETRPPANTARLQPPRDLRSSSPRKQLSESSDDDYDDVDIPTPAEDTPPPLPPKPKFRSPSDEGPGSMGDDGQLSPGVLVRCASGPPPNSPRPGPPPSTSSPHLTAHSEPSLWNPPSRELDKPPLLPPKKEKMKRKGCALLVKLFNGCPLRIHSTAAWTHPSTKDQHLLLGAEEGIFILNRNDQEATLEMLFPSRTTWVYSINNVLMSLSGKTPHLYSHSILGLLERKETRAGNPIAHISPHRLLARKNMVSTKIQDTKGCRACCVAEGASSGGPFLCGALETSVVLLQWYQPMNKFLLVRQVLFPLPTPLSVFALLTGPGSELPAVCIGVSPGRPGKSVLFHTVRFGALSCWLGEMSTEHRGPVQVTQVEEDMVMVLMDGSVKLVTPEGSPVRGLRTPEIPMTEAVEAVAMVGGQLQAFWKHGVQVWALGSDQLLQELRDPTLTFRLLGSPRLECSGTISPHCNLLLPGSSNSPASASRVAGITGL
Method in brief: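 Mobility shift readout of HPK1 activity after a 60 min RT reaction with 1 mM ATP, 1 μM substrate and 5 mM MgCl2. Enzyme/substrate mix was first exposed to compounds for 30 min, using ten-point curves topping at 3 μM final.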

Compared with `O=C1NCc2c(-c3cnc4n3CCCCC4)ccc(Nc3ccc(N4CCC(O)CC4)cn3)c21` [I-288, 7-((5-(4-hydroxy-piperidin-1-yl)pyridin-2-yl)amino)-4-(6,7,8,9-tetrahydro-5H-imidazo[1,2-a]azepin-3-yl)isoindolin-1-one], `O=C1NCc2c(-c3cnc4ccccn34)ccc(Nc3ccc(N4CCCNCC4)cn3)c21` [I-104, 7-[[5-(l,4-diazepan-1-yl)-2-pyridyl]amino]-4-imidazo[1,2-a]pyridin-3-yl-isoindolin-1-one] is higher in pIC50: 6.00 to 7.00 for the first, greater than 7.00 for the second.

`COC[C@]1(O)CCCN(c2ccc(Nc3ccc(-c4cnc5cc(F)ccn45)c4c3C(=O)NC4)nc2)C1` [I-393, (S)-4-(7-fluoroimidazo [1,2-a]pyridin-3-yl)-7-((5-(3-hydroxy-3-(methoxymeth-yl)piperidin-1-yl)pyridin-2-yl)amino)isoin-dolin-1-one] and `Cn1ccc2c(-c3ccc(Nc4ccc(N5CCC6(CC5)COC6)cn4)c4c3CNC4=O)ccnc21` [I-299] cannot be ordered by pIC50: greater than 7.00 for the first, greater than 7.00 for the second.

`C[C@H]1COCCN1c1ccc(Nc2ccc(-c3cnc4cnccn34)c3c2C(=O)NC3)nc1` [I-314, (S)-4-(imidazo[1,2-a]pyrazin-3-yl)-7-((5-(3-methylmorpho-lino)pyridin-2-yl)amino)isoin-dolin-1-one] and `O=C1NCc2c(-c3cnc4cc(F)ccn34)ccc(Nc3ccc(N4CCCC(N5CCOCC5)C4)cn3)c21` (stereo not shown) [I-476, Formic acid salt 4-(7-fluoroimidazo [1,2-a]pyridin-3-yl)-7-[[5-(3-morpholino-1-piperidyl)-2-pyridyl]amino] isoindolin-1-one] cannot be ordered by pIC50: greater than 7.00 for the first, greater than 7.00 for the second.

`Cc1ccn2c(-c3ncc(Nc4ccc(N5CCO[C@H](C(C)(C)O)C5)cn4)c4c3CNC4=O)cnc2c1F` [I-473, 4-(8-fluoro-7-methyl-imidazo[1,2-a]pyridin-3-yl)-7-[[5-[(2S)-2-(1-hydroxy-1-methyl-ethyl)morpholin-4-yl]-2-pyridyl]amino]-2,3-dihydropyrrolo [3,4-c]pyridin-1-one] and `CN(Cc1nc(Nc2ccc(-c3cnc4cc(F)ccn34)c3c2C(=O)NC3)ccc1[C@H]1CCOC1)C1CC1` [I-737] cannot be ordered by pIC50: greater than 7.00 for the first, greater than 7.00 for the second.

Compared with `C[C@H]1NC(=O)c2c(Nc3ccc(N4CCC(O)CC4)cn3)ccc(-c3cnc4ccccn34)c21` [I-317, (R)-7-((5-(4-hydroxy-piperidin-1-yl)pyridin-2-yl)amino)-4-(imidazo[1,2-a]pyridin-3-yl)-3-methylisoindo-lin-1-one], “(S)-7-((5-(4-hydroxypiperidin-1-yl)pyridin-2-yl)amino)-3-methyl-4-(1-methyl-1H-pyrrolo[2,3-b]pyridin-4-yl)isoindolin-1-one [I-286]” is lower in pIC50: greater than 7.00 for the first, less than 6.00 for the second.

`CN(C)Cc1nc(Nc2ccc(-c3cnc4cc(F)ccn34)c3c2C(=O)NC3)ccc1C1(C#N)CCOCC1` [I-824, 4-(2-((dimethylamino)methyl)-6-((7-(7-fluoroimidazo [1,2-a]pyridin-3-yl)-3-oxoisoindolin-4-yl)amino)pyri-din-3-yl)tetrahydro-2H-pyran-4-carbonitrilc] and `O=C1NCc2c(-c3cnc4cc(F)ccn34)ccc(Nc3ccc(N4CCO[C@H](CO)C4)cn3)c21` [I-454, 4-(7-fluoroimidazo [1,2-a]pyridin-3-yl)-7-[[5-[(2S)-2-(hydroxymeth-yl)morpliolin-4-yl]-2-pyridyl]amino] isoindolin-1-one] cannot be ordered by pIC50: greater than 7.00 for the first, greater than 7.00 for the second.

Compared with `O=C1NCc2c(-c3cnc4cc(F)ccn34)ccc(Nc3ccc(S(=O)(=O)CC4COC4)cn3)c21` [I-377, 4-(7-fluoroimidazo [1,2-a]pyridin-3-yl)-7-((5-((oxctan-3-ylmethyl)sulf-onyl)pyridin-2-yl)amino)isoin-dolin-1-one], `O=C1NCc2c(-c3cnc4cnccn34)ccc(Nc3ccc(N4CCC[C@H](O)C4)cn3)c21` [I-169, 7-[[5-[(3S)-3-hydroxy-1-piperipyl]-2-pyridyl]amino]-4-imidazol[1,2-a]pyrazin-3-yl-isoindolin-1-one] is higher in pIC50: 6.00 to 7.00 for the first, greater than 7.00 for the second.

`CN1CCC(c2ccc(Nc3ccc(-c4ccnc5c4ccn5C)c4c3C(=O)NC4)nc2)CC1=O` (stereo not shown) [I-271, 4-(1-methyl-1H-pyrrolo[2,3-b]pyridin-4-yl)-7-((5-(1-methyl-2-oxopiperidin-4-yl)pyridin-2-yl)amino)isoin-dolin-1-one] and `C[C@H](O)[C@@H]1CCCN(c2ccc(Nc3ccc(-c4cnc5cc(F)ccn45)c4c3C(=O)NC4)nc2)C1` (stereo in doubt) [I-363, 4-(7-fluoroimidazo [1,2-a]pyridin-3-yl)-7-((5-((S)-3-((R)-1-hydroxyethyl)piperidin-1-yl)pyridin-2-yl)amino)isoin-dolin-1-one] cannot be ordered by pIC50: greater than 7.00 for the first, greater than 7.00 for the second.

`Cc1ccn2c(-c3ccc(Nc4ccc(N5CCO[C@H](C(C)(C)O)C5)cn4)c4c3CNC4=O)cnc2c1` [I-490, 7-[[5-[(2S)-2-(1-hydroxy-1-methylethyl)morpholin-4-yl]-2-pyridyl]amino]-4-(7-methylimidazo [1,2-a]pyridin-3-yl)isoindolin-1-one] and `C[C@H]1CN(c2ccc(Nc3ccc(-c4cnc5cc(F)ccn45)c4c3C(=O)NC4)nc2CN(C)C)CCO1` [I-529, 7-[[6-[(dimethylamino)-methyl]-5-[(2S)-2-methylmorpho-lin-4-yl]-2-pyridyl]amino]-4-(7-fluoroimidazo [1,2-a]pyridin-3-yl)isoindolin-1-one Bis formic acid salt] cannot be ordered by pIC50: greater than 7.00 for the first, greater than 7.00 for the second.

`CN1CCN(c2ccc(Nc3ccc(-c4cnc5cnccn45)c4c3C(=O)NC4)nc2)CC1` [I-76, 4-imidazo[1,2-a]pyrazin-3-yl-7-[[5-(4-methylpiperazin-1-yl)-2-pyridyl]amino] isoindolin-1-one] and `CCn1ccc2c(-c3ccc(Nc4ccc(N5CCN(C)CC5)cn4)c4c3CNC4=O)ccnc21` [I-49] cannot be ordered by pIC50: greater than 7.00 for the first, greater than 7.00 for the second.

`CN(C)Cc1nc(Nc2ccc(-c3cnc4cc(C(F)F)ccn34)c3c2C(=O)NC3)ccc1C1CCOC1` (stereo in doubt) [I-753, (R)-4-(7-(difluoromethyl)-imidazo[1,2-a]pyridin-3-yl)-7-((6-((dimethylamino)-methyl)-5-(tetrahydrofuran-3-yl)pyridin-2-yl)amino)isoin-dolin-1-one] and `Cn1ccc2c(-c3ncc(Nc4ccc(N5CCC[C@H](O)C5)cn4)c4c3CNC4=O)ccnc21` [I-179, 7-[[5-[(3S)-3-hydroxy-1-piperidyl]-2-pyridyl]amino]-4-(1-methylpyrrolo [2,3-b]pyridin-4-yl)-2,3-dihydropyrrolo [3,4-c]pyridin-1-one] cannot be ordered by pIC50: greater than 7.00 for the first, greater than 7.00 for the second.

`CN(C)CCc1nc(Nc2cnc(-c3ccnc4c3ccn4C)c3c2C(=O)NC3)ccc1C1CCOC1` (stereo in doubt) [I-807, (R)-7-((6-(2-(dimethylami-no)ethyl)-5-(tetrahydrofuran-3-yl)pyridin-2-yl)amino)-3-(1-methyl-1H-pyrrolo[2,3-b)pyridin-4-yl)-2,3-dihydro-1H-pyrrolo[3,4-c]pyridin-1-one] and “4-(6- methylpyrazol o[1,5-a]pyridin-3- yl)-7-[[5- (morpholino- methyl)-2- pyridyl]amino] isoindolin-1-one [I-469]” cannot be ordered by pIC50: greater than 7.00 for the first, greater than 7.00 for the second.

`N#Cc1ccn2c(-c3ccc(Nc4ccc(N5CCNCC5)cn4)c4c3CNC4=O)cnc2c1` [I-120] and `Cc1cccc2c(-c3ccc(Nc4ccc(N5CCC(O)CC5)cn4)c4c3CNC4=O)cnn12` [I-136, 7-[[5-(4-hydroxy-1-piperidyl)-2-pyripyl]amino]-4-(7-methylpyrazolo[1,5-a]pyridin-3-yl)isoindolin-1-one] cannot be ordered by pIC50: greater than 7.00 for the first, greater than 7.00 for the second.

`O=C1NCc2c(-c3ccnc4c3ccn4C(F)F)ccc(Nc3ccc(N4CCNCC4)cn3)c21` [I-119, 4-[l-(difluorometh-yl)pyrrolo[2,3-b]pyridin-4-yl]-7-[(5-piperazin-1-yl-2-pyridyl)amino] isoindolin-1-one] and `CNC1(C)CCN(c2ccc(Nc3cnc(-c4ccnc5c4ccn5C)c4c3C(=O)NC4)nc2)CC1` [I-244, 7-[[5-[4-methyl-4-(methylamino)-1-piperidyl]-2-pyridyl]-amino]-4-(1-methylpyrrolo [2,3-b]pyridin-4-yl)-2,3-dihydropyrrolo [3,4-c]pyridin-1-one] cannot be ordered by pIC50: greater than 7.00 for the first, greater than 7.00 for the second.

`CN(C)Cc1nc(Nc2ccc(-c3cnc4cnccn34)c3c2C(=O)NC3)ccc1[C@H]1CCOC1` [I-713, (R)-7-((6-((dimethylamino)-methyl)-5-(tetrahydrofuran-3-yl)pyridin-2-yl)amino)-4-(imidazo[1,2-a]pyrazin-3-yl)isoindolin-1-one] and `O=C1NCc2c(-c3cnc4cc(F)ccn34)ccc(Nc3ccc(N4CCO[C@H](CNC5CC5)C4)cn3)c21` [I-477, 7-[[5-[(2R)-2-[(cyclopropylamino)methyl]morpholin-4-yl]-2-pyridyl]amino]-4-(7-fluoroimidazo [1,2-a]pyridin-3-yl)isoindolin-1-one] cannot be ordered by pIC50: greater than 7.00 for the first, greater than 7.00 for the second.

`CN[C@H]1CCCN(c2ccc(Nc3ccc(-c4ccnc5c4ccn5C)c4c3C(=O)NC4)nc2)C1` [I-97, 7-[[5-[(3S)-3-(methylamino)-1-piperidyl]-2-pyridyl]amino]-4-(1-methylpyrrolo [2,3-b]pyridin-4-yl)isoindolin-1-one] and `O=C1NCc2c(-c3cnc4cc(F)ccn34)ccc(Nc3cccc(N4CC[C@H]5CNC[C@H]54)n3)c21` [I-497, 4-(7-fluoroimidazo [1,2-a]pyridin-3-yl)-7-((6-((3aS,6aS)-hexahydropy-rrolo[3,4-b]pyrrol-1(2H)-yl)pyridin-2-yl)amino)isoin-dolin-1-one] cannot be ordered by pIC50: greater than 7.00 for the first, greater than 7.00 for the second.

Compared with `O=C1NCc2c(-c3cnc4cc(F)ccn34)ccc(Nc3ccc([C@H]4CCOC4)c(CN4CC(F)C4)n3)c21` [I-762, (R)-7-((6-((3-fluoroazetidin-1-yl)methyl)-5-(tetrahydrofuran-3-yl)pyridin-2-yl)amino)-4-(7-fluoroimidazo [1,2-a]pyridin-3-yl)isoindolin-1-one], `Cn1ccc2c(-c3ncc(Nc4cccc(N5C[C@H](N6CCC6)CC5=O)n4)c4c3CNC4=O)ccnc21` [I-724, (R)-7-((6-(4-(azetidin-1-yl)-2-oxopyrrolidin-1-yl)pyridin-2-yl)amino)-4-(1-methyl-1H-pyrrolo[2,3-b]pyridin-4-yl)-2,3-dihydro-1H-pyrrolo[3,4-c]pyridin-1-one] is lower in pIC50: greater than 7.00 for the first, 6.00 to 7.00 for the second. The first is the more potent here.
